The source made the active and inactive calls.
Legend:
[1] = target: T1, Endoribonuclease toxin MazF (Escherichia coli K-12, UniProt P0AE70); test: substrate-only fluorescence increase artefacts – biochemical, single-stranded RNase substrate, counter-screen for MazEF activator project, dose response (AID 588502); type: functional
T1 sequence (P0AE70 whole entry): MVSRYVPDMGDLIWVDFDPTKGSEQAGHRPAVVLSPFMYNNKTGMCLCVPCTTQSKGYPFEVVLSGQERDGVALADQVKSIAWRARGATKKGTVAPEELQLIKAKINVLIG

[2] = target: T1, Endoribonuclease toxin MazF; test: activation of MazEF endoribonuclease cleavage – biochemical, fluorescence, single-stranded RNA substrate, uHTS hits, dose response (AID 588481); type: functional
[3] = target: T1, Endoribonuclease toxin MazF; test: MazEF toxin-antitoxin RNase activation – biochemical, fluorescence, single-stranded RNA substrate, SAR follow-up (AID 588603); type: functional
MEF = test: SAR analysis of small molecule cytotoxicity of MazEF TA System activators in embryonic fibroblast (MEF) cells. [Related pubchem assays (depositor defined):AID504720, AID504743]; type: functional; conditions: Mus musculus
[4] = target: T1, Endoribonuclease toxin MazF; test: SAR analysis of small molecule activators of the MazEF TA System via a fluorescence-based single-stranded RNase assay counterscreen. [Related pubchem assays (depositor defined):AID504720, AID504743]; type: functional
[5] = target: T2, Sentrin-specific protease 8 (Homo sapiens, UniProt Q96LD8); test: inhibition of human SENP8 cleavage activity – biochemical, luminescence, SAR follow-up (AID 504501); type: functional
T2 sequence (Q96LD8 whole entry): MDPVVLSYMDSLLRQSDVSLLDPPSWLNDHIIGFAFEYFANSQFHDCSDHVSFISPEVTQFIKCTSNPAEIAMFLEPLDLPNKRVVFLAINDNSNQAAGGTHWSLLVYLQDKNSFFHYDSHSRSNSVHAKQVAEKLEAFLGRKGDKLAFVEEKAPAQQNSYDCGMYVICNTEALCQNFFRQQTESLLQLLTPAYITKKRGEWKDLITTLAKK

Caspase-3 [6] = target: T3, Caspase-3 (Homo sapiens, UniProt P42574); test: inhibition of recombinant caspase-3 activity – biochemical, luminescence, set 2, selectivity assay for SENP protease inhibitor project, SAR follow-up (AID 588599); type: functional
T3 sequence (P42574 whole entry): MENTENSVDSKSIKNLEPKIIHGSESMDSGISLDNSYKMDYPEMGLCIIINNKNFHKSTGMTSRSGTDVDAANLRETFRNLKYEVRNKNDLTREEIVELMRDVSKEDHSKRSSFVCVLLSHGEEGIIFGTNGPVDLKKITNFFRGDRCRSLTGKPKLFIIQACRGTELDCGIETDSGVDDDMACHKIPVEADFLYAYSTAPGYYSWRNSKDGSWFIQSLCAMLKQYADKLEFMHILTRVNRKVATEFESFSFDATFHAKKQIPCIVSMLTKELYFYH

[7] = target: T4, Sentrin-specific protease 6 (Homo sapiens, UniProt Q9GZR1); test: SAR Analysis of small molecule inhibitors of Sentrin-specific protease 6 (SENP6) using a Luminescent assay. [Related pubchem assays (depositor defined):AID2582, AID2599]; type: functional
T4 sequence (Q9GZR1 whole entry): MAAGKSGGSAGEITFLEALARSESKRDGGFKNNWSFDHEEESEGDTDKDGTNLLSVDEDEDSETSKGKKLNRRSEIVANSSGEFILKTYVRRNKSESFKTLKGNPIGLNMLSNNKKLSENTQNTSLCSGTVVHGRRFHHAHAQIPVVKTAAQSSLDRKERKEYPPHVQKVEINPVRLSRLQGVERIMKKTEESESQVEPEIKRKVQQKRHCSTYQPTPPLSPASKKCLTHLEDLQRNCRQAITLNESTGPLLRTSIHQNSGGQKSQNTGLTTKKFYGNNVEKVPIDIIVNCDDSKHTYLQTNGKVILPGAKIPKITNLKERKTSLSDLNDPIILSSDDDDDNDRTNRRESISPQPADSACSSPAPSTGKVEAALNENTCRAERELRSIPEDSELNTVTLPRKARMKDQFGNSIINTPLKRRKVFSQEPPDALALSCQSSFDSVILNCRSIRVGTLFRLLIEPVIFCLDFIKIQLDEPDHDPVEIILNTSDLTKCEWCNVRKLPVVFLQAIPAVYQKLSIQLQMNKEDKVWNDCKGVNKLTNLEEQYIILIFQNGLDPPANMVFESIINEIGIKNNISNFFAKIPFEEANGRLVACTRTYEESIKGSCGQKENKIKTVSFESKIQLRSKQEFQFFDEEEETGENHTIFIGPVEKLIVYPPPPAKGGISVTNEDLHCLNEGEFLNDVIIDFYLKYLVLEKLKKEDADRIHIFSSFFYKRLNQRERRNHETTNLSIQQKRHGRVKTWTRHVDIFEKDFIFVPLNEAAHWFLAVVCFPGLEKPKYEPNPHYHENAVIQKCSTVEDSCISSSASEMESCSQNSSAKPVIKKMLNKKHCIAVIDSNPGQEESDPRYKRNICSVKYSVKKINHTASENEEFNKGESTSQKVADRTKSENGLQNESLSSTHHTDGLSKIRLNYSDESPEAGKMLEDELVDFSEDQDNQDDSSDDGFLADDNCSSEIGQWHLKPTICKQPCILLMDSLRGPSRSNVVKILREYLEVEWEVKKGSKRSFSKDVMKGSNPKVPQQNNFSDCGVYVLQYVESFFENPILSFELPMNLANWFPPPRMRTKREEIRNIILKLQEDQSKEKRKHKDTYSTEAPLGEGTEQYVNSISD

[8] = target: T5, Sentrin-specific protease 7 (Homo sapiens, UniProt Q9BQF6); test: inhibition of human SENP7 cleavage activity – biochemical, luminescence, SAR follow-up (AID 504497); type: functional
T5 sequence (Q9BQF6 whole entry): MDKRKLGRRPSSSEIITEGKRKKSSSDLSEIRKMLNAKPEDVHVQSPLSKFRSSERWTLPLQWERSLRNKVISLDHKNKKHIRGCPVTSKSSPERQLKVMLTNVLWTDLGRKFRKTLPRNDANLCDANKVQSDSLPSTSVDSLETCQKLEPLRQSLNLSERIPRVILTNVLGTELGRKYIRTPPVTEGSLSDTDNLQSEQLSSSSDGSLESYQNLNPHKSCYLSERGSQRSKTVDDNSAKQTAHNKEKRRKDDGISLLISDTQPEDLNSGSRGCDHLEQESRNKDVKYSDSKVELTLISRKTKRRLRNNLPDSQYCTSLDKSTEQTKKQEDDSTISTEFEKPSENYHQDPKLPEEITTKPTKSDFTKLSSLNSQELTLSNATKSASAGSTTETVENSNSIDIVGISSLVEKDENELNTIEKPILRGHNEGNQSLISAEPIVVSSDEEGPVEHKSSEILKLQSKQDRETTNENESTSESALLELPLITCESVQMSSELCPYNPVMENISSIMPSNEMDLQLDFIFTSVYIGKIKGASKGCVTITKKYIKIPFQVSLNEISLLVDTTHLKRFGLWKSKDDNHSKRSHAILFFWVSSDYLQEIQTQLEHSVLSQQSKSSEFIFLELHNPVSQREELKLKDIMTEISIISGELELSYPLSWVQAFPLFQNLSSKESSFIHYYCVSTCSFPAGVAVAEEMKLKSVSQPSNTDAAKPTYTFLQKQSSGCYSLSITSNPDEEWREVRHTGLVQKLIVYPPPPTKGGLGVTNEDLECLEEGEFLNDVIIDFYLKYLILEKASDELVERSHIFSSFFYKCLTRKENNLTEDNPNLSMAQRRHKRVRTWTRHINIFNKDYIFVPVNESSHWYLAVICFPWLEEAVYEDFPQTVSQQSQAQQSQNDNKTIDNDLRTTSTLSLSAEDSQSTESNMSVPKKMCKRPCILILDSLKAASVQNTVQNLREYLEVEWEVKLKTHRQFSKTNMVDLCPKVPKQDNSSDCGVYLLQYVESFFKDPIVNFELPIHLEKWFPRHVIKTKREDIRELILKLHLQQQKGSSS

[9] = target: T4, Sentrin-specific protease 6; test: inhibition of human SENP6 catalytic domain – biochemical, luminescence, set 2, SAR follow-up (AID 588598); type: functional
[10] = target: T5, Sentrin-specific protease 7; test: inhibition of human SENP7 cleavage activity – biochemical, luminescence, set 2, SAR follow-up (AID 588600); type: functional
[11] = target: T2, Sentrin-specific protease 8; test: inhibition of sentrin protease 8 – biochemical, luminescence, set 2, SAR follow-up (AID 588601); type: functional
Caspase-3 [12] = target: T3, Caspase-3; test: SAR Analysis of small molecule inhibitors of Sentrin-specific proteases (SENPs) using a Caspase-3 Selectivity assay. [Related pubchem assays (depositor defined):AID2540, AID2599, AID434973, AID489001]; type: functional
Phospholipase D2 = Phospholipase D2 (Homo sapiens, UniProt O14939); test: cellular phospholipase D2 inhibition IC50 – cell-based, dose response (AID 602147); type: functional;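 note: cellular assay in HEK293 cells overexpressing GFP-tagged PLD2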
Phospholipase D1 = Phospholipase D1 (Homo sapiens, UniProt Q13393); test: cellular phospholipase D1 inhibition IC50 – cell-based, dose response (AID 602151); type: functional;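 note: cellular PLD1 assay in Calu-1 cells stimulated with PMA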
SN12K1 = test: cells; type: functional; conditions: Homo sapiens, SN12K1
[13] = target: FAD-linked sulfhydryl oxidase ALR (Homo sapiens, UniProt P55789); test: ALR-catalysed DTT oxidation blockers – biochemical, H2O2 detection, luminescence, cherry-pick, dose response (AID 493248)
[14] = target: Dual specificity tyrosine-phosphorylation-regulated kinase 1A (Rattus norvegicus, UniProt Q63470); type: biochemical, Homo sapiens
Large T antigen = Large T antigen (Simian virus 40, UniProt P03070); type: functional, Betapolyomavirus macacae;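 note: Confirmatory-stage PubChem screen for compounds that inhibit SV40 T antigen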
P388/ADR = test: cells; type: functional; conditions: Mus musculus, P388/ADR
[15] = luciferase inhibitors in kinase-free ADP detection – biochemical, luminescence, cherry-pick, set 02, artefact control for Dyrk1A inhibitor project, dose response (AID 588348)
P388 = test: cells; type: functional; conditions: Mus musculus, P388

FAD-linked sulfhydryl oxidase ALR, sequence (P55789 whole entry): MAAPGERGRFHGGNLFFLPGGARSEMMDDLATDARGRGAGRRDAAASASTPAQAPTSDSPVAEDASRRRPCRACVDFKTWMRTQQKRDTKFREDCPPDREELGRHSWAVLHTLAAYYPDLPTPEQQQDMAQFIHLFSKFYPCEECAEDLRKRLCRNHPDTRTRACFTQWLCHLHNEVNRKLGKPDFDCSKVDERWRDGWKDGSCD
Phospholipase D1, sequence (Q13393 whole entry): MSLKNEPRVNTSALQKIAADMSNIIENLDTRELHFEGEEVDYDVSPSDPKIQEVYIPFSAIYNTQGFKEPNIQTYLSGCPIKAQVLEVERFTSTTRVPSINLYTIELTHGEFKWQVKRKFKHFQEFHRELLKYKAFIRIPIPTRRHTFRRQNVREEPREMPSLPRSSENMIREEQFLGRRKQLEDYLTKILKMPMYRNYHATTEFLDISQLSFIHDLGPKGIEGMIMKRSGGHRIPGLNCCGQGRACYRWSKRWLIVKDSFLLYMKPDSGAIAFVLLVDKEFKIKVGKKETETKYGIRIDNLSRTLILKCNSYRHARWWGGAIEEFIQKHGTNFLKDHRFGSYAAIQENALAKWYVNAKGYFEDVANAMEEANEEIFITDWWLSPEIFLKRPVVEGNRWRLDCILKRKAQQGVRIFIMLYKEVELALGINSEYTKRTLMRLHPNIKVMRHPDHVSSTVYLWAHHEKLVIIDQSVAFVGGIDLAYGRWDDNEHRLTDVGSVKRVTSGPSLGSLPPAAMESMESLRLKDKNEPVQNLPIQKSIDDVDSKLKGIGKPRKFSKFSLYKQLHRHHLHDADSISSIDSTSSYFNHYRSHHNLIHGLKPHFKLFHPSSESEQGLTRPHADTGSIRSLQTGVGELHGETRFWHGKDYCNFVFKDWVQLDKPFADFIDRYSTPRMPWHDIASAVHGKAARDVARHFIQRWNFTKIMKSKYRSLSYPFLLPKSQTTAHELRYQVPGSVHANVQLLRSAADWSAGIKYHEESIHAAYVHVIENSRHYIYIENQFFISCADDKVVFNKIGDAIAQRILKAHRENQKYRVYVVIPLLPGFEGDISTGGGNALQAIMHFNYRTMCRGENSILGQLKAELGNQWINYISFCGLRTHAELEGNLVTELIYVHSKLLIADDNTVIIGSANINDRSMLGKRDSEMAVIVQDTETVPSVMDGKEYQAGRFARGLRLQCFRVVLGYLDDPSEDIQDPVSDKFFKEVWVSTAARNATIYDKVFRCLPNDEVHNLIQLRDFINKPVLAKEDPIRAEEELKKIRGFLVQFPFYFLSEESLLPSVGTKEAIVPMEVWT
Large T antigen, sequence (P03070 whole entry): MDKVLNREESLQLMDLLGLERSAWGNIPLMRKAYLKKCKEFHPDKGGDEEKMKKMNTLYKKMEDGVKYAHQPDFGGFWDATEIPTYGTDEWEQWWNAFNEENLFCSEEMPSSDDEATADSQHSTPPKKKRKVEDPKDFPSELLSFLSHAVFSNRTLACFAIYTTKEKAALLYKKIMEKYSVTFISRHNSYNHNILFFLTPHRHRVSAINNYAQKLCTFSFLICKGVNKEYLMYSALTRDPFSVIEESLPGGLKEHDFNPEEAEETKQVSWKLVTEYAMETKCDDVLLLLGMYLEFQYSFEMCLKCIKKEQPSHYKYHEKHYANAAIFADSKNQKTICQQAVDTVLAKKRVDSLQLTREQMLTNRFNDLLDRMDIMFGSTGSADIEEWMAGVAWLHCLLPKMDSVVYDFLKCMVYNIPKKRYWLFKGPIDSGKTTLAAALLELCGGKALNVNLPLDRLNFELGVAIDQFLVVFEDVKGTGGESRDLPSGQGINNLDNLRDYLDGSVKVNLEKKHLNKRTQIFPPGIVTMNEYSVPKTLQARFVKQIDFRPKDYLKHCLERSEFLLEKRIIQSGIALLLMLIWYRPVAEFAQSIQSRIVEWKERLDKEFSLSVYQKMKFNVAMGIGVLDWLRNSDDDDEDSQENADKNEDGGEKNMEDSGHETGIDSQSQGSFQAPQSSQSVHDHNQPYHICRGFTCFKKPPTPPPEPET
Phospholipase D2, sequence (O14939 whole entry): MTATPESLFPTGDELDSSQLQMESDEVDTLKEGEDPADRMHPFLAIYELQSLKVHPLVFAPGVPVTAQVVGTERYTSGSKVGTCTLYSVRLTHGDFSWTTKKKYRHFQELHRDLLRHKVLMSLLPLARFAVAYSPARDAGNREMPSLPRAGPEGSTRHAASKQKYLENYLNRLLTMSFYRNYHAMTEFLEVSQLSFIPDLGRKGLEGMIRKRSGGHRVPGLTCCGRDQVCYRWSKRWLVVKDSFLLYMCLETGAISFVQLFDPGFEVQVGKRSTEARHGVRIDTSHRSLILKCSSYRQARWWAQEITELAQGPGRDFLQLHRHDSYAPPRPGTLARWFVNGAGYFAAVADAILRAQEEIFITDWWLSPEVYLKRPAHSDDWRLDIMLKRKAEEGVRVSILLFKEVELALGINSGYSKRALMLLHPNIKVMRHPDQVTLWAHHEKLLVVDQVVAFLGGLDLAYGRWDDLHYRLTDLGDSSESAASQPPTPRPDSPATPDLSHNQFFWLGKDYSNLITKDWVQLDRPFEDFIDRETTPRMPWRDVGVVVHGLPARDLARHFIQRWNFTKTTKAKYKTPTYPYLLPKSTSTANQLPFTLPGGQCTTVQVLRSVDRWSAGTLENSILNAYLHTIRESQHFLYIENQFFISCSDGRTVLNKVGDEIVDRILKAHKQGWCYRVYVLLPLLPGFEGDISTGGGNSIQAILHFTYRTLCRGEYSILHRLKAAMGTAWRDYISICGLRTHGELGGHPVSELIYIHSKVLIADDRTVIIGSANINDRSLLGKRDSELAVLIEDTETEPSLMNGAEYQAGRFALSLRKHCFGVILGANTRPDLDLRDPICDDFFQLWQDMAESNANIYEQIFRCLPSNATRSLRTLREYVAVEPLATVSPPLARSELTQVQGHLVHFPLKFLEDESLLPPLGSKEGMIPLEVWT

With Cc1ccc(CNC(=O)c2ccc(CNS(=O)(=O)c3ccc4c(c3)C(C)(C)C(=O)N4C)cc2)o1 the EC50 [1] was > 99 µM (inactive), the EC50 [2] was 9.43 µM (active) and the EC50 [3] was 9.72 µM (active). For the same compound, the CC50 (MEF) was > 99 µM (inactive) and the EC50 [4] was > 99 µM (inactive).

With O=C(Nc1nc2ccc(Cl)cc2s1)c1ccco1 the IC50 [5] was 1.7 µM (active), the IC50 (Caspase-3 [6]) was 1.42 µM (active) and the IC50 [7] was 1.4 µM (active). For the same compound, the IC50 [8] was 1 µM (active), the IC50 [9] was 1.16 µM (active) and the IC50 [10] was 1.23 µM (active). The IC50 [11] was 1.08 µM (active) and the IC50 (Caspase-3 [12]) was 1.5 µM (active).

With C[C@@H](CN1CCC(n2c(=O)[nH]c3ccccc32)CC1)NC(=O)c1ccc(C(F)(F)F)cc1 the IC50 (Phospholipase D2) was 20 µM (active) and the IC50 (Phospholipase D1) was 0.121 µM (active).

In the case of Oc1cc(O)cc(/C=C/c2ccc(O)c(O)c2)c1 [PICEATANNOL], the GI50 (SN12K1) is reported as 3.94 µM (inactive), the AC50 [13] is reported as 0.689 µM (active) and the EC50 [1] is reported as > 99 µM (inactive). The EC50 [2] was > 99 µM (inactive), the AC50 [14] was 7.53 µM (active) and the IC50 (Large T antigen) was 16.4 µM (active). The GI50 (P388/ADR) was 7.76 µM (inactive), the AC50 [15] was 27.7 µM (active) and the GI50 (P388) was 5.48 µM (inactive).

From ChEMBL document CHEMBL1201862, “PubChem BioAssay data set” (2004)
